Measured values as given in patent publication US20240368151A1, “NOVEL ERGOLINES AND METHODS OF TREATING MOOD DISORDERS” (priority 2021, published 2024).

Tests used:
[1] = Metabolic stability in rat liver microsomes (RLM); type: in vitro ADME; conditions: both sexes, rat, pooled rat liver microsomes, pH 7.4, NADPH
C57BL/6 mice = test: Mouse head twitch response (HTR) assay; type: in vivo; conditions: mouse HTR, SC; for Emax (95% CI): curve fit
Experimental: Agonists of the 5-HT2A receptor are well known to induce this effect in rodents and the potency of this HTR is correlated with hallucinogenic potency in humans.
Animals. Adult male C57BL/6 mice, aged 6-8 weeks (body weight 20-25 g) were used in this experiment. Animals were housed under controlled temperatures and 12-hour light/dark cycles (lights on between 07:00-19:00 h), with ad libitum food and water. This study was carried out in strict accordance with the requirements of the Committee for the Purpose of Control and Supervision of Experiments on Animals (CPCSEA), India. All efforts were made to minimize suffering.
Drugs and Drug Administration. Compound 1 was synthesized as described above. It was administered subcutaneously (SC) dissolved in saline vehicle at a volume of 10 mL/kg. Five doses were tested, with n=6 animals/group. Doses were calculated on the basis of the freebase.
Procedure. Mice were administered one dose of the drug and immediately placed into a small open field for behavioral observation. Animals were observed continuously for 20 mins and the number of head twitches (HTs) were counted by an observer blind to the treatment condition.
Statistical Analysis. The data points shown are the mean±standard error of the mean (SEM). Analysis was performed using GraphPad Prism 6. Curves were fit using a non-linear gaussian distribution to calculate ED50 and Emax values.
Additional disclosed compounds were tested in the mouse head twitch response (HTR) assay according to the procedure described in Example 34. […] Lastly, compounds with much larger benzyl and phenethyl substituents on the amine nitrogen (e.g., 10 and 11) were low efficacy in this assay, consistent with their lower maximal efficacy in the arrestin functional assay (see Example 32).

[2] = Metabolic stability in mouse liver microsomes (MLM); type: in vitro ADME; conditions: mouse, pooled mouse liver microsomes, pH 7.4, MLM (CD-1), NADPH
Source text: MLM Stability Pooled MLM from CD-1 mice (BIOIVT M00501) were used.

5-HT2B receptor = 5-HT2B receptor (Homo sapiens (Human), UniProt P41595); test: FLIPR Ca^2+ flux agonist assay at 5-HT2B; type: cell-based; conditions: HEK293
Experimental: (§1) Functional Assays at 5-HT2A, 5-HT2B, and 5-HT1A. Agonist activity at 5-HT2A, 5-HT2B, and 5-HT1A receptors was determined using a FLIPR Ca^2+ flux assay at WuXi AppTec (Hong Kong) Limited according to their standard protocols. Briefly, stably transfected cells expressing the receptor of interest (HEK293 for 5-HT2A and 5-HT2B; CHO cells for 5-HT1A) were grown and plated in a 384 well plate and incubated at 37° C. and 5% CO2 overnight. A solution of 250 mM probenecid in 1 mL FLIPR assay buffer was prepared fresh. This was combined with a fluorescent dye (Fluo-4 Direct™) to make a final assay concentration of 2.5 mM. […] The fluorescent dye was then added to the assay plate along with assay buffer to a final volume of 40 μL. The cell plate was incubated for 50 min at 37° C. and 5% CO2 and placed into the FLIPR Tetra along with the compound plate. 10p L of references and compounds were then transferred from the compound plate into the cell plate and the fluorescent signal was read.

5-HT2A receptor [3] = molecular target: T1, 5-HT2A receptor (Homo sapiens (Human), UniProt P28223); type: cell-based; conditions: Ca^2+ flux, HEK293
Experimental: as §1

5-HT2A receptor [4] = molecular target: T1, 5-HT2A receptor; type: cell-based; conditions: beta-arrestin recruitment
Experimental: The degree of arrestin bias varied substantially across the other compounds tested as well.
Arrestin Functional Assay at 5-HT2A. Recruitment of beta-arrestin was determined using a PathHunter assay at Eurofins DiscoverX (Fremont, CA) according to their standard protocols. PathHunter GPCR beta-arrestin assays take advantage of DiscoverX's proprietary Enzyme Fragment Complementation technology. The GPCR is fused in frame with a small enzyme donor fragment ProLink™ (PK) and co-expressed in cells stably expressing a fusion protein of beta-arrestin and the larger, N-terminal deletion mutant of beta-galactosidase. Activation of the GPCR (5-HT2A receptor in this case) stimulates binding of beta-arrestin to the PK-tagged GPCR and forces complementation of the two enzyme fragments, resulting in the formation of an active beta-galactosidase enzyme. This interaction leads to an increase in enzyme activity that can be measured using chemiluminescent PathHunter Detection Reagents. Briefly, PathHunter cells expressing 5-HT2A receptors were seeded in a volume of 20 μL into 384-well plates and incubated at 37° C. for the appropriate time prior to testing. […] Plates were then imaged on a microplate reader and the agonist activity was calculated using the following formula: % Activity=100%×(mean RLU of test sample−mean RLU of vehicle control)/(mean MAX control ligand−mean RLU of vehicle control), where RLU=relative light units.

human 5-HT2C receptor = human 5-HT2C receptor (Homo sapiens (Human), UniProt P28335); type: cell-based; conditions: Ca^2+ flux
[5] = Metabolic stability in human liver microsomes (HLM); type: in vitro ADME; conditions: both sexes, human, pooled human liver microsomes, pH 7.4, NADPH
Source text: HLM Stability. Pooled HLM from adult male and female donors (Corning 452117) were used.

5-HT1A receptor = 5-HT1A receptor (Homo sapiens (Human), UniProt P08908); test: FLIPR Ca^2+ flux agonist assay at 5-HT1A; type: cell-based; conditions: CHO cells
Experimental: as §1

Chain of 5-HT2B receptor (P41595 whole entry, looked up): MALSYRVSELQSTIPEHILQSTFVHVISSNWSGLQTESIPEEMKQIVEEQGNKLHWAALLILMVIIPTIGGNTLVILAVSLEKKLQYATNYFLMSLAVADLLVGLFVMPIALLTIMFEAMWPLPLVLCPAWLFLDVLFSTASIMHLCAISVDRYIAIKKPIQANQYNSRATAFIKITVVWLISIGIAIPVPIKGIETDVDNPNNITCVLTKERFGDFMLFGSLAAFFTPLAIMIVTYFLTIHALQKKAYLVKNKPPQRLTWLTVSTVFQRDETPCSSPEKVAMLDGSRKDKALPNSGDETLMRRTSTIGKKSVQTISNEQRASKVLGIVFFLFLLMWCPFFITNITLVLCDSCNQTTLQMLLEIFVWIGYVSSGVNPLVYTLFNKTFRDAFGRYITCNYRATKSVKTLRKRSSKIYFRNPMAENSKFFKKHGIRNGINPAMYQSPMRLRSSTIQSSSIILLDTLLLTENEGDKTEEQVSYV
Chain of human 5-HT2C receptor (P28335 33-458 limits assumed): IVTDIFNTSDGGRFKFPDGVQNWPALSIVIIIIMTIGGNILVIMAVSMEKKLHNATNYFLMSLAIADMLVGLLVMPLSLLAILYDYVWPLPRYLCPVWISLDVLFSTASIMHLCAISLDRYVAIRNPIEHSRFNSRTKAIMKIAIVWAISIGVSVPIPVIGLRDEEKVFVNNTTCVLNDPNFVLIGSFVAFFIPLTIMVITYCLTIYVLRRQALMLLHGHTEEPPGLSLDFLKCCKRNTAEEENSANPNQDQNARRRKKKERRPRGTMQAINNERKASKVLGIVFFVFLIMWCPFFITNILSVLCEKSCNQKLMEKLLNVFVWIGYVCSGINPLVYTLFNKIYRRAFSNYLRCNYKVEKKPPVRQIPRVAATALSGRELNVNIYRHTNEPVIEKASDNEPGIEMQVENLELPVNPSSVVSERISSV

Row | Structure (SMILES) | half-life at 1 μM [1] | Most Efficacious Dose (C57BL/6 mice) | # HTR at Most Efficacious Dose (C57BL/6 mice; 20 min observation) | Emax (95% CI) (C57BL/6 mice; 20 min observation) | half-life at 1 μM [2] | 5-HT2B % Act @ Max Dose (5-HT2B receptor) | 5-HT2A % Act @ Max Dose (5-HT2A receptor [3]) | 5-HT2A Arrestin % Act @ Max Dose (5-HT2A receptor [4]) | agonist type in the 5-HT2A arrestin recruitment assay, in words (5-HT2A receptor [4]) | 5-HT2C % Act @ Max Dose (human 5-HT2C receptor) | half-life at 1 μM [5] | 5-HT1A % Act @ Max Dose (5-HT1A receptor)
1 | C=CCN1C[C@H](C(=O)N[C@H](C)CC)C=C2c3cccc4[nH]cc(c34)C[C@H]21 [Compound 8, (6aR,9R)-7-allyl-N-((R)-sec-butyl)-4,6,6a,7,8,9-hexahydroindolo[4,3-fg]quinoline-9-carboxamide] | 7.7 min | (1 mg/kg) | 15.75 | 12.03 | 3.7 min | 91.56% | 99.25% | 112.42% | full agonists | 108.26% | 7.9 min | 116.41%
2 | CC[C@@H](C)NC(=O)[C@H]1C=C2c3cccc4[nH]cc(c34)C[C@H]2N(CC)C1 [Compound 5a, (6aR,9S)-N-((R)-sec-butyl)-7-ethyl-4,6,6a,7,8,9-hexahydroindolo[4,3-fg]quinoline-9-carboxamide] | 3.1 min |  |  |  | 1.7 min | 43.7% | 89.59% | 62.444% |  | 99.4405% | 5.5 min | 111.65%
3 | CCC[C@@H](C)NC(=O)[C@H]1C=C2c3cccc4[nH]cc(c34)C[C@H]2N(C)C1 [Int17a, (6aR,9S)-7-methyl-N-((R)-pentan-2-yl)-4,6,6a,7,8,9-hexahydroindolo[4,3-fg]quinoline-9-carboxamide] | 1.96 min |  |  |  | 1.58 min | 5.63% | 63.31% | 43.729% |  | 112.06% | 4.58 min | 88.52%
4 | CCN(CC)C(=O)[C@H]1C=C2c3cccc4[nH]cc(c34)C[C@H]2N(CCCF)C1 [Compound 2a, (6aR,9S)-N,N-diethyl-7-(3-fluoropropyl)-4,6,6a,7,8,9-hexahydroindolo[4,3-fg]quinoline-9-carboxamide] | 9.67 min |  |  |  | 1.78 min | 40.13% | 90.29% | 83.328% |  | 118.85% | 17 min | 96.77%
5 | CCC[C@@H](C)NC(=O)[C@@H]1C=C2c3cccc4[nH]cc(c34)C[C@H]2N(C)C1 [Int17, (6aR,9R)-7-methyl-N-((R)-pentan-2-yl)-4,6,6a,7,8,9-hexahydroindolo[4,3-fg]quinoline-9-carboxamide] | 27.9 min | (0.32 mg/kg) |  | 4.96 | 8.25 min | 25.49% | 91.47% | 38.809% | partial agonists | 102.19% | 15.9 min | 113.04%
